Reference: patent publication US4560689A, “Heterocyclic-fused pyrazolo-[3,4-d]pyridin-3-ones as benzodiazepine receptor modulators” (Ciba-Geigy Corporation, priority 1984, dated 1985)
Counter-ions that a name gives are not always drawn.

Legend:
benzodiazepine receptor [1] = assay: in vitro benzodiazepine receptor binding assay (tritiated diazepam displacement); details: inhibition of specific binding of 2 nM tritiated diazepam, membranes from rat fore-brain, 0°-5°, 30 minutes, pH 7.5
Procedure: The benzodiazepine receptor binding properties indicative of the nervous system regulatory activity of said new compounds are determined in the receptor binding assay in vitro, e.g. as described in Nature 266, 732 (1977) or Proc. Nat. Acad. Sci. USA 74, 3805 (1977). Diazepam binds specifically and with high affinity to crude synaptosomal membrane preparations from rat fore-brain. This binding is inhibited by other anxiolytic compounds. When tritiated diazepem is used, the interaction of other drugs with said receptor can be readily assessed thus: membranes from rat fore-brain are incubated at 0°-5° for 30 minutes with 2 nM tritiated diazepam and various concentrations of the test substance in a buffer medium maintained at pH 7.5. Solutions of the various concentrations of test substances are prepared by dilution of a 4.2 mM stock solution in dimethylacetamide-ethanol (1:10) with 50 mM pH7.5. Tris-HCl buffer. The membranes, containing the receptors with various amounts of tritiated diazepam, are filtered onto glass fiber filters, which are then analyzed in a liquid scintillation counter. The concentration of the compounds of this invention, required to inhibit the specific binding of 2 nM of tritiated diazepam by 50%, i.e. the IC50, is determined graphically.

benzodiazepine receptor [2] = assay: in vivo benzodiazepine receptor binding (3H-flunitrazepam); details: 30 mg/kg p.o. in the mouse
Procedure: In vivo benzodiazepine receptor binding is determined essentially as described in Eur. J. Pharmacol. 48, 213 (1978) and Nature 275, 551 (1978).
Test compounds in a corn starch vehicle are administered orally or intraperitioneally to mice or rats. Thirty minutes later, 3H-flunitrazepam(2 nmoles/Kg in saline) is injected into the tail vein, and the animals are sacrificed 20 minutes after injection of the flunitrazepam. The brains are then assayed by determining radioactivity in a liquid scintillation counter for binding of the radioligand to the receptors. A decrease in the binding of 3H-flunitrazepam in the drug-treated animals (as compared with the binding observed in animals treated with vehicle alone) is indicative of benzodiazepine receptor binding by the test compound.

Row | SMILES | IC50 (benzodiazepine receptor [1]) | inhibits flunitrazepam binding in vivo (benzodiazepine receptor [2])
1 | O=c1c2c[nH]c3sccc3c-2nn1-c1ccc(Cl)cc1 [Example 9, 2-(4-chlorophenyl)-thieno[2,3-b]pyrazolo[3,4-d]pyridin-3(5H)-one hydrate] | ~9 nM | –
2 | O=c1c2c[nH]c3ccncc3c-2nn1-c1ccc(Cl)cc1 [Example 2, 2-p-chlorophenyl-pyrazolo[4,3-c][1,6]naphthyridin-3(5H)-one] | ~0.2 nM | –
3 | O=c1c2c[nH]c3ccncc3c-2nn1-c1cccnc1 [Example 5a, 2-(3-pyridyl)pyrazolo[4,3-c][1,6]naphthyridin-3-(5H)-one hydrochloride] | ~3 nM | –
4 | O=c1c2c[nH]c3ccncc3c-2nn1-c1ccccc1 [Example 1, 2-phenyl-pyrazolo[4,3-c][1,6]naphthyridin-3(5H)-one] | – | about 75%
